Data published in US20240299553A1, “INDOCARBOCYANINE LIPID DERIVATIVES FOR IN VIVO CARGO DELIVERY” (priority 2021, published 2024).

Columns and labels:
[1] = test system: 4T1 syngeneic orthotopic breast carcinoma; test: Confocal microscopy of 4T1 tumor slices after i.v. injection of dual-labeled liposomes; format: in vivo, mice; conditions: for extravasation and migration area in tumor: 24 h after i.v., 290 nm EPC/DSPE-PEG2000 liposomes with 0.2% DiD and Cy3-DSPE
Description: Lipids at the following molar ratios: HSPC/Chol/DSPE-PEG2000 (57/38/5) or EPC/DSPE-PEG2000 (95:5) with addition of 0.2% ICL and/or 0.2% FPL were mixed and dried under a nitrogen stream. The dry lipid cake was resuspended in PBS for a total lipid concentration of 20 mM, then incubated at 60° C. for 30 minutes. The solution was then vortexed for 2 minutes and bath sonicated. Liposomes were extruded by a syringe extruder (Avestin, Ottawa, Canada) through Whatman Nucleopore Track-Etch Membranes (200 nm pore size, 15 times). HSPC-based liposomes were extruded at 60° C., EPC-based liposomes were extruded at room temperature. Size and zeta potential were measured at room temperature in the presence of 1% phosphate-buffered saline using Zetasizer Nano (Malvern, UK). Liposomes were stored at 4° C. at a final concentration of 10 mM (total lipid) for a maximum period of 8 weeks before use.
4T1 cell line was purchased from the ATCC and verified using a sequencing core. GL261 cells were obtained from the National Cancer Institute (NCI), and CT2A cells were a gift from Dr. Tom Seyfried (Boston College). LY2 cells were from Dr. Sana Karam, University of Colorado Anschutz Medical campus. Cells were grown at 37° C. in RPMI 1640 medium containing 10% heat-inactivated fetal bovine serum, 10 mM HEPES, 100 U/ml penicillin, and […] streptomycin (all from Corning Inc. New York, NY, USA). BALB/c mice were bred in-house. Mice of 8-10 weeks of age (females) were implanted with 0.5×10^6 cells into the mammary fat pad (4T1) or subcutaneously in the jaw region (LY2) and used for experiments 1 week later when tumors reached ˜200-300 mm^3. For brain tumors, C57BL/6 mice (6-8 weeks old) were implanted with a total 1×10^5 GL261 or CT-2A cells per animal using an established protocol. To determine the distribution of liposomes in tumors and organs, liposomes were injected with 50 μl of 10 mM total lipid intravenously. Blood was collected via periorbital plexus using heparin glass capillaries, and the plasma was separated by centrifugation at 500 g for 5 min. In some experiments, mice were preinjected before dissection with 50 μl of FITC-tomato lectin (1 mg/ml) and 50 μl Hoechst 33324 (2 mg/ml) to visualize the vasculature and the nuclei. Mice were sacrificed with carbon dioxide, followed by cardiac perfusion with PBS through the left ventricle.
Nikon Eclipse AR1HD inverted confocal microscope with 405 nm, 488 nm, 561 nm, and 640 nm excitation lasers and corresponding emission filters was used. For high magnification imaging, liposomes were diluted 1:200 in PBS, mixed with glycerol at 1:1 ratio and 2 μl were placed on slide. For liposomes in plasma, the samples were diluted 1:20 and mixed with glycerol. The preparations in glycerol were spread under a coverslip and imaged under Apo60 or Apo100 Oil objective at 2048×2048 resolution. For tumor imaging, tumors or whole brains were frozen on dry ice and sliced with a blade into 1-2 mm thick slices. The slices were placed on a glass slide and imaged using Plan Apo 10 objective. Channels' voltage and laser intensity were adjusted using the dual labeled liposomes placed on a slide and imaged under the same magnification. These parameters were calibrated before each imaging session using the batch of liposomes used in that experiment. For quantification, multiple random image areas from different slices of the tumor (both periphery and center) were acquired at 512×512 resolution. Images were quantified with Fiji using customized macros. Briefly, 8-bit gray image stacks were thresholded for fluorescence in the Cy3 and Cy5 channels and the percentages of binary (positive) areas were calculated using the “Measure” function. All the data were plotted with Prism version 8.3.0 (GraphPad, San Diego, CA).

[2] = test system: human glioma cell lines; conditions: cited from earlier work
[3] = test system: MOLM13 leukemic cells; test: MTT cytotoxicity assay in MOLM13 leukemic cells; format: cell-based; conditions: Homo sapiens, MOLM-13, 48 h
[4] = test system: LY2 head and neck cancer; test: Confocal microscopy of LY2 tumors after injection of dual-labeled liposomes; format: in vivo, mice; conditions: 24 h; DiI/Cy5-DSPE labeled EPC/DSPE-PEG2000 liposomes
Description: (§1) 4T1 cell line was purchased from the ATCC and verified using a sequencing core. GL261 cells were obtained from the National Cancer Institute (NCI), and CT2A cells were a gift from Dr. Tom Seyfried (Boston College). LY2 cells were from Dr. Sana Karam, University of Colorado Anschutz Medical campus. Cells were grown at 37° C. in RPMI 1640 medium containing 10% heat-inactivated fetal bovine serum, 10 mM HEPES, 100 U/ml penicillin, and […] streptomycin (all from Corning Inc. New York, NY, USA). BALB/c mice were bred in-house. Mice of 8-10 weeks of age (females) were implanted with 0.5×10^6 cells into the mammary fat pad (4T1) or subcutaneously in the jaw region (LY2) and used for experiments 1 week later when tumors reached ˜200-300 mm^3. […]
(§2) Nikon Eclipse AR1HD inverted confocal microscope with 405 nm, 488 nm, 561 nm, and 640 nm excitation lasers and corresponding emission filters was used. […] For quantification, multiple random image areas from different slices of the tumor (both periphery and center) were acquired at 512×512 resolution. Images were quantified with Fiji using customized macros. Briefly, 8-bit gray image stacks were thresholded for fluorescence in the Cy3 and Cy5 channels and the percentages of binary (positive) areas were calculated using the “Measure” function. […]

[5] = test system: syngeneic intracranial GL261 glioma; test: Confocal microscopy of brain slices of GL261 glioma mice after i.v. dual-labeled liposomes; format: in vivo; conditions: 48 h post-injection, EPC/DSPE-PEG2000 liposomes, 0.2% DiI and 0.2% Cy5-DSPE
Description: as §1, §2

[6] = Plasma fluorescence elimination profile after liposome injection; format: in vivo, mice; conditions: 24 h post-injection; DiI/Cy5-DSPE liposomes
Description: as §1, with “mm^3. For brain tumors, C57BL/6 mice (6-8 weeks old) were implanted with a total 1×10^5 GL261 or CT-2A cells per animal using an established protocol.” for “mm^3.”
Tumors and livers were placed in a 24-well plate and scanned as described above. […] Mean fluorescence was determined from 8-bit TIFF images using Fiji software by drawing a region of interest around the tumors and using the “Measure” function to determine mean gray values. […] For plasma fluorescence profile, plasma collected at different time points was serially diluted, dotted on a nitrocellulose membrane, scanned as above, and the mean fluorescence of dots was plotted versus time with Prism.

[7] = Ex vivo fluorescence imaging of excised tumors and livers; format: in vivo, mice
Description: Tumors and livers were placed in a 24-well plate and scanned as described above. To match the intensity of the channels, the same liposomes used for injection were diluted (1:10), dotted on a 0.45 μm nitrocellulose membrane, and scanned together with the samples. Mean fluorescence was determined from 8-bit TIFF images using Fiji software by drawing a region of interest around the tumors and using the “Measure” function to determine mean gray values. Such measurement is independent of the organ cross-section area. The mean gray values of non-injected tumors were subtracted from the measurements. For plasma fluorescence profile, plasma collected at different time points was serially diluted, dotted on a nitrocellulose membrane, scanned as above, and the mean fluorescence of dots was plotted versus time with Prism.

[8] = Lipid extraction of tumors and organs, dye biodistribution; format: in vivo, mice; conditions: 48 h post-injection
Description: For extraction using a modified Bligh-Dyer method, 50-100 mg tissue was homogenized as described above, 10 parts of chloroform/methanol (2:1) were added to the homogenate (considering that tissue weight is 1 part), and the samples were mixed at 1400 rpm for 2 h at room temperature on Eppendorf Thermomixer. The tubes were centrifuged at 500 g for 10 min. The organic phase (bottom, approximately 80% of the added amount) was carefully collected, dotted on a PVDF membrane and scanned for DiI and Cy5 fluorescence as described above. Different dilutions of liposomes (standard curve) were scanned together with the samples. The percentage of the injected DiI and Cy5 in the extract was calculated from the standard curve and divided by tissue weight. The fluorescence of control non-injected organs was subtracted from that of injected organs. For TLC analysis, the mobile phase consisted of chloroform: methanol (9:1) with 1% trifluoroacetic acid and the samples were run on TLC Silica Gel 60 F254 plates (EMD Millipore).

[9] = Skin extravasation and accumulation of liposomal lipid dyes; format: in vivo, Mouse
Description: FIG. 40B: Liposomes were formulated with Cy3-DSPE, LR-DOPE or DiI. FIG. 40C: Mouse skin was excised 4 days after injection and the microscopic areas of accumulation and extravasation were counted. […] FIG. 40D-40F: circulation and skin accumulation of DiD and Cy5-DSPE liposomes (n=3 per group, 9 different skin areas pooled). FIG. 40G-40H: mixed DiI/Cy5-DSPE liposomes colocalize in skin blood vessels at 1 h, and colocalize in plasma (1000× magnification zoomed). Arrows in FIG. 40G point to DiI extravasation. […] Similar results were observed when mixed Cy3-DSPE/DiD liposomes were used (lower panel).

For `CCCCCCCCCCCCCCCCCC(=O)OC[C@H](COP(=O)(O)OCCNC(=O)CCCCCN1/C(=C/C=C/C2=[N+](C)c3ccccc3C2(C)C)C(C)(C)c2ccccc21)OC(=O)CCCCCCCCCCCCCCCCC.O=C[O-]` [Cy3-DSPE], the “extravasation and migration area in tumor” value ([1]; p-value<0.0001) was “mostly stayed in blood vessels”.

With `CCCCCCCCCCCCCCCCCCN1C(=CC=CC=CC2=[N+](CCCCCCCCCCCCCCCCCC)c3ccccc3C2(C)C)C(C)(C)c2ccccc21.O=S(=O)([O-])c1ccc(Cl)cc1` [DiD] the “extravasation and migration area in tumor” value ([1]; p-value<0.0001) was “extravasated and migrated over a significantly larger area than Cy3-DSPE”.

For `COc1cccc2c1C(=O)c1c(O)c3c(c(O)c1C2=O)C[C@@](O)(C(=O)CO)C[C@@H]3O[C@H]1C[C@H](N)[C@H](O)[C@H](C)O1` [doxorubicin], the “toxicity to glioma cells (IC50)” value [2] is given as “nanomolar range”.

With `Nc1ccn([C@@H]2O[C@H](CO)[C@@H](O)[C@@H]2O)c(=O)n1` [cytarabine] the EC50 [3] was 65 nM.

In the case of `CC(=O)O[C@H]1C(=O)[C@@]2(C)[C@H]([C@H](OC(=O)c3ccccc3)[C@]3(O)C[C@H](OC(=O)[C@H](O)[C@@H](NC(=O)c4ccccc4)c4ccccc4)C(C)=C1C3(C)C)[C@]1(OC(C)=O)CO[C@@H]1C[C@@H]2O` [paclitaxel], the “toxicity to glioma cells (IC50)” value [2] is given as “nanomolar range”.

With `CCCCCCCCCCCCCCCCCCN1C(=CC=CC2=[N+](CCCCCCCCCCCCCCCCCC)c3ccccc3C2(C)C)C(C)(C)c2ccccc21.[O-][Cl+3]([O-])([O-])[O-]` [DiI] the “fluorescence positive area in tumor images” value ([1]; 4 h, 24 h and 48 h post-injection, EPC/DSPE-PEG2000 DiI/Cy5-DSPE liposomes, p-value<0.0001) was “significantly larger area than Cy5-DSPE”, the “extravasation and spreading in tumor” value ([1]; 24 h, 150 nm HSPC/Chol/DSPE-PEG2000 liposomes (DOXIL formula), 0.2% DiI and Cy5-DSPE) was “more efficient extravasation and spreading” and the “extravasation and distribution in tumor” value ([1]; 24 h post-injection, EPC/DSPE-PEG2000 liposomes, 0.2 mole % DiI and Cy5-DSPE, i.v.) was “efficiently extravasated and migrated throughout the tumor”. The extravasation in tumor [4] was “much better extravasation”, the “accumulation and spreading in glioma” value [5] was “accumulated and spread in tumors much more efficiently than Cy5-DSPE” and the “dye cleared from the circulation” value [6] was “approximately 80%”. For the same compound, the “fluorescence in liver images over time” value ([7]; livers, later time points versus 1 h) was “increase”, the “fluorescence in tumor images over time” value ([7]; tumors, 1 h, 24 h, 48 h post-injection) was “continued to increase at 24 h and 48 h” and the “tissues with the highest dye amount” value [8] was “highest in the tumor and liver”. The “dye amount in tumor and organ extracts over time” value ([8]; tumors, livers, spleens, kidneys, 1 h, 24 h) was “increase in all organs except the kidney over 48 h”, the “extravasation and accumulation in skin cells” value ([9]; mixed DiI/Cy5-DSPE liposomes, 4 days later) was “only DiI extravasated and accumulated in skin cells” and the skin extravasation ([9]; skin excised 4 days after injection, liposomes with Cy3-DSPE, LR-DOPE or DiI) was “more efficient extravasation than phospholipid dyes”.
